Experimental findings from PubChem BioAssay (NCI) are described below.

Usually GI50 stands for the concentration giving 50% growth inhibition. For orientation: TGI means the concentration giving total growth inhibition. Low readings indicate greater sensitivity of the cells, high ones lower sensitivity of the cells.

Several values for one entry are separate records, joined by “and”; a condition that tells them apart may be missing. Identical values can stand only once.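 96-well plates; 48 h exposure; 5 concentrations. Endpoints by linear interpolation between flanking doses. Not reached: highest tested concentration assigned. At the GI50, growth is halved. At the TGI there is no net growth.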

Test systems include EKVX NSCLC; UACC-257 melanoma; HT29 colon; MALME-3M melanoma; SK-MEL-2 melanoma; OVCAR-8 ovarian; MDA-MB-231 breast; UACC-62 melanoma; NCI-H226 lung; PC-3 prostate.
What all share (assay): DTP human tumour cell line panel, 48 h

Take `COc1ccc(-c2csc(-c3cc(Cl)cc(Cl)c3Cl)n2)cc1`: the GI50 was 59.9 µM in the test with EKVX NSCLC; 62.7 µM in the test with UACC-257 melanoma; 47.5 µM in the test on HT29 colon; 81.1 µM in the test on MALME-3M melanoma; over 100 µM with SK-MEL-2 melanoma; 48.4 µM in the test with OVCAR-8 ovarian. Moreover, the GI50 with MDA-MB-231 breast is 60 µM; in the test with UACC-62 melanoma, 41.9 µM; in the test on NCI-H226 lung, 78 µM; in the test with PC-3 prostate it was 52.2 µM. In addition, the TGI in the test on EKVX NSCLC, in the test on UACC-257 melanoma, in the test on HT29 colon, in the test on MALME-3M melanoma, in the test on SK-MEL-2 melanoma and in the test on OVCAR-8 ovarian was over 100 µM each time. The TGI in the test with MDA-MB-231 breast, with UACC-62 melanoma, in the test with NCI-H226 lung and with PC-3 prostate was over 100 µM throughout.
Regarding `CN(C[C@@H]1COCCO1)S(=O)(=O)Nc1ccc2ccc3ncc(-c4cnn(C)c4)cc3c(=O)c2c1`, the GI50 was 19.1 µM in the test on EKVX NSCLC; over 100 µM in the test with UACC-257 melanoma; 19.7 µM in the test with HT29 colon; 5.43 µM with MALME-3M melanoma; 3.12 µM with SK-MEL-2 melanoma; 5.04 µM in the test on OVCAR-8 ovarian. For the same compound, the GI50 in the test on MDA-MB-231 breast is 7.76 µM; in the test with UACC-62 melanoma, 3.29 µM; with NCI-H226 lung it was 2.62 µM; in the test with PC-3 prostate it was 5.67 µM. The TGI in the test with EKVX NSCLC was over 100 µM; in the test with UACC-257 melanoma it was over 100 µM; in the test on HT29 colon, over 100 µM; with MALME-3M melanoma, over 100 µM; in the test with SK-MEL-2 melanoma it was over 29.4 µM; in the test on OVCAR-8 ovarian it was over 100 µM. Further, the TGI in the test on MDA-MB-231 breast, with UACC-62 melanoma, with NCI-H226 lung and with PC-3 prostate was over 100 µM each time.
Regarding `CCOC(=O)c1cc2c(n1Cc1ccccc1)-c1oncc1CC2`, the GI50 in the test with EKVX NSCLC is 5.65 µM; in the test on UACC-257 melanoma it was 10.7 µM; with HT29 colon, 3.23 µM; in the test with MALME-3M melanoma it was 6.28 µM; in the test on SK-MEL-2 melanoma, 6.15 µM; with OVCAR-8 ovarian it was 7.19 µM. Also, the GI50 with MDA-MB-231 breast was 5.66 µM; in the test on UACC-62 melanoma, 3.45 µM; in the test with NCI-H226 lung it was 10.7 µM; with PC-3 prostate, 9.68 µM. The TGI with EKVX NSCLC turned out to be 49.5 µM; in the test on UACC-257 melanoma, 59.7 µM; in the test with HT29 colon it was 14.4 µM; in the test on MALME-3M melanoma, 37 µM; with SK-MEL-2 melanoma it was 27.3 µM; in the test on OVCAR-8 ovarian, 66.9 µM. For the same compound, the TGI was 57.1 µM in the test on MDA-MB-231 breast, 17.2 µM with UACC-62 melanoma, over 100 µM with NCI-H226 lung and 94.1 µM with PC-3 prostate.
In the case of `Nc1c(C(=O)Nc2ccccc2F)sc2nc3c(cc12)C(=O)CCC3`, the TGI in the test with EKVX NSCLC, in the test on UACC-257 melanoma, in the test with HT29 colon, in the test on MALME-3M melanoma, in the test on SK-MEL-2 melanoma and with OVCAR-8 ovarian was over 100 µM in each case. In addition, the TGI in the test on MDA-MB-231 breast, in the test with UACC-62 melanoma, in the test with NCI-H226 lung and with PC-3 prostate was over 100 µM each time. Further, the GI50 with UACC-257 melanoma is over 100 µM; with HT29 colon, 0.531 µM; in the test on MALME-3M melanoma it was 1.44 µM; in the test on SK-MEL-2 melanoma, 0.683 µM; with OVCAR-8 ovarian, 13.8 µM; in the test on MDA-MB-231 breast, 7.53 µM. The GI50 was 0.654 µM in the test with UACC-62 melanoma, 10.5 µM in the test on NCI-H226 lung and 0.959 µM with PC-3 prostate.
Consider `Nc1nc(N)c2nc(CNc3ccc(C(=O)NC(CCCNC(=O)c4ccccc4C(=O)O)C(=O)O)cc3)cnc2n1` (stereo not given), for which the concentration for total growth inhibition (TGI) in the test with EKVX NSCLC, with UACC-257 melanoma, with HT29 colon, with MALME-3M melanoma, in the test on SK-MEL-2 melanoma and in the test with OVCAR-8 ovarian was over 100 µM throughout. For the same compound, the TGI in the test with MDA-MB-231 breast, in the test with UACC-62 melanoma, in the test with NCI-H226 lung and with PC-3 prostate was over 100 µM throughout. Further, the GI50 is 0.0155 µM with UACC-257 melanoma; 0.00102 µM with HT29 colon; over 100 µM in the test with SK-MEL-2 melanoma; 0.0015 µM in the test on OVCAR-8 ovarian; < 0.01 µM and 0.00129 µM in the test on UACC-62 melanoma; over 100 µM in the test on NCI-H226 lung.
`COc1cccc2[nH]c(-c3ccccn3)nc12`: the TGI in the test with EKVX NSCLC, in the test on UACC-257 melanoma, in the test with HT29 colon, with MALME-3M melanoma, in the test with SK-MEL-2 melanoma and in the test on OVCAR-8 ovarian was over 100 µM throughout. The TGI in the test on MDA-MB-231 breast, in the test on UACC-62 melanoma, with NCI-H226 lung and with PC-3 prostate was over 100 µM in each case.
As to `CC1=C[S+](c2ccccc2)c2cccc3cc4ccccc4c1c23` (stereo not given), the GI50 is 0.333 µM with EKVX NSCLC; 0.315 µM with UACC-257 melanoma; 0.348 µM in the test with HT29 colon; 0.372 µM in the test on MALME-3M melanoma; 1.52 µM with SK-MEL-2 melanoma; 0.158 µM with OVCAR-8 ovarian. In addition, the GI50 was 1.69 µM in the test on MDA-MB-231 breast, 0.305 µM with UACC-62 melanoma, 1.26 µM with NCI-H226 lung and 0.247 µM with PC-3 prostate. For the same compound, the TGI turned out to be 4.99 µM with EKVX NSCLC; 1.68 µM with UACC-257 melanoma; 2.12 µM with HT29 colon; 2.22 µM with MALME-3M melanoma; 8.55 µM with SK-MEL-2 melanoma; 3.73 µM with OVCAR-8 ovarian. Further, the TGI with MDA-MB-231 breast turned out to be 4.48 µM; with UACC-62 melanoma, 1.64 µM; in the test with NCI-H226 lung, 7.47 µM; with PC-3 prostate, 12.1 µM.
`COc1ccc(C(=O)c2cc3c(N)c(C(=O)Nc4cccc(Cl)c4C)sc3nc2C)cc1`: the GI50 in the test on EKVX NSCLC was 0.134 µM; in the test on UACC-257 melanoma it was over 6.12 µM; in the test with HT29 colon, 0.0863 µM; with MALME-3M melanoma it was 0.205 µM; in the test on SK-MEL-2 melanoma it was 0.215 µM; in the test on OVCAR-8 ovarian it was 0.125 µM. In addition, the GI50 in the test with MDA-MB-231 breast was 0.142 µM; with UACC-62 melanoma, 0.12 µM; with NCI-H226 lung, 0.277 µM; in the test with PC-3 prostate it was 0.122 µM. Also, the TGI in the test on EKVX NSCLC, in the test with UACC-257 melanoma, in the test with HT29 colon, in the test on MALME-3M melanoma, in the test with SK-MEL-2 melanoma and in the test on OVCAR-8 ovarian was over 25 µM in each case. Further, the TGI in the test with MDA-MB-231 breast, in the test with UACC-62 melanoma, with NCI-H226 lung and in the test with PC-3 prostate was over 25 µM in each case.
